Molecules are shown by their SMILES.

T1 sequence (O14842 whole entry): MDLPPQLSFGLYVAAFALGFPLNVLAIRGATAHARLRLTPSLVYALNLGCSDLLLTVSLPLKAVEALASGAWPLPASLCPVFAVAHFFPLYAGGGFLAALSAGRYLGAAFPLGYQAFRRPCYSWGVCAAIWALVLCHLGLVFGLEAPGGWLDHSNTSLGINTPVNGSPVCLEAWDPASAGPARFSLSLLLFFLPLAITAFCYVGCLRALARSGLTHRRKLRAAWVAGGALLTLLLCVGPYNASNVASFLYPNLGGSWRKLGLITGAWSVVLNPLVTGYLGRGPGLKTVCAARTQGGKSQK

This assay addresses T1, GPR40 (Homo sapiens, UniProt O14842).
T1 construct: expressed in transfected cells
Description: Calcium mobilization in GPR40-transfected cells. It is filed as cell-based. The following applies: calcium mobilization in GPR40-transfed cells. As for the experimental part:
The compounds were tested for their ability to mobilize calcium in GPR40-transfed cells as described by Christiansen et al. (J. Med. Chem. 2011, 54, 6691-6703).
Take `O=C(O)CCc1ccc(C#Cc2ccccc2)cc1F` [Example 1, 3-(2-Fluoro-4-(phenylethynyl)phenyl)propanoic acid]: the “GPR40 activity (pEC50)” value is 7.48.
Turning to `C=C(C)C#Cc1ccc(CCC(=O)O)c(F)c1` [Example 2, 3-(2-Fluoro-4-(3-methylbut-3-en-1-yn-1-yl)phenyl)propanoic acid], the “GPR40 activity (pEC50)” value was 7.09.
On to `C/C=C(/C)C#Cc1ccc(CCC(=O)O)c(F)c1` [Example 3, (Z)-3-(2-Fluoro-4-(3-methylpent-3-en-1-yn-1-yl)phenyl)propanoic acid], for which the “GPR40 activity (pEC50)” value is on record as 7.69.
With `C/C=C(\C)C#Cc1ccc(CCC(=O)O)c(F)c1` [Example 4, (E)-3-(2-Fluoro-4-(3-methylpent-3-en-1-yn-1-yl)phenyl)propanoic acid], the “GPR40 activity (pEC50)” value came out at 7.43.
Take `Cc1ccccc1C#Cc1ccc(CCC(=O)O)c(F)c1` [Example 5, 3-(2-Fluoro-4-(o-tolylethynyl)phenyl)propanoic acid]: the “GPR40 activity (pEC50)” value is reported as 7.48.
With `Cc1ccc(C#N)cc1C#Cc1ccc(CCC(=O)O)c(F)c1` [Example 7, 3-(4-((5-Cyano-2-methylphenyl)ethynyl)-2-fluorophenyl)propanoic acid] the figure was 7.77.
For `CS(=O)(=O)Cc1ccccc1C#Cc1ccc(CCC(=O)O)c(F)c1` [Example 8, 3-(2-Fluoro-4-((2-((methylsulfonyl)methyl)phenyl)ethynyl)phenyl)propanoic acid], the “GPR40 activity (pEC50)” value came to 5.84.
With `CS(=O)(=O)Cc1cccc(C#Cc2ccc(CCC(=O)O)c(F)c2)c1` [Example 9, 3-(2-Fluoro-4-((3-((methylsulfonyl)methyl)phenyl)ethynyl)phenyl)propanoic acid], the “GPR40 activity (pEC50)” value is reported as 5.71.
With `O=C(O)CCc1c(F)cc(C#Cc2ccccc2)cc1F` [Example 10, 3-(2,6-Difluoro-4-(phenylethynyl)phenyl)propanoic acid] the figure was 6.85; with `O=C(O)CCc1ccc(C#Cc2ccccc2)c(F)c1` [Example 11, 3-(3-Fluoro-4-(phenylethynyl)phenyl)propanoic acid], 6.84.
Regarding `C/C(C#Cc1ccc(CCC(=O)O)c(F)c1)=C/CO` [Example 12, (Z)-3-(2-Fluoro-4-(5-hydroxy-3-methylpent-3-en-1-yn-1-yl)phenyl)propanoic acid], the “GPR40 activity (pEC50)” value is 6.37.
Turning to `O=C(O)CCc1ccc(C#Cc2cc(Cl)cc(Cl)c2)cc1F` [Example 13, 3-(4-((3,5-Dichlorophenyl)ethynyl)-2-fluorophenyl)propanoic acid], the “GPR40 activity (pEC50)” value was 7.42.
In the case of `O=C(O)CCc1ccc(C#Cc2cc(F)ccc2C(F)F)cc1F` [Example 14, 3-(4-((2-(Difluoromethyl)-5-fluorophenyl)ethynyl)-2-fluorophenyl)propanoic acid], the “GPR40 activity (pEC50)” value was 7.74.
